What was measured:
[1] = molecular target: Ephrin type-A receptor 2 (Homo sapiens) (UniProt P29317); conditions: Compound concentration 1000.0 nM
[2] = molecular target: Dual specificity mitogen-activated protein kinase kinase 2 (Homo sapiens) (UniProt P36507); conditions: Compound concentration 1000.0 nM
[3] = molecular target: Cyclin-dependent kinase-like 1 (Homo sapiens) (UniProt Q00532); conditions: Compound concentration 1000.0 nM
[4] = molecular target: Glycogen synthase kinase-3 alpha (Homo sapiens) (UniProt P49840); conditions: Compound concentration 1000.0 nM
[5] = molecular target: Serine/threonine-protein kinase SIK2 (Homo sapiens) (UniProt Q9H0K1); conditions: Compound concentration 1000.0 nM
[6] = system: Phosphatidylinositol 4,5-bisphosphate 3-kinase catalytic subunit alpha isoform (Homo sapiens), P42336 [E545K]; conditions: Compound concentration 1000.0 nM
Phosphatidylinositol 4,5-bisphosphate 3-kinase catalytic subunit alpha isoform (Homo sapiens), P42336 [E545K], sequence (P42336 whole entry E545K, canonical isoform): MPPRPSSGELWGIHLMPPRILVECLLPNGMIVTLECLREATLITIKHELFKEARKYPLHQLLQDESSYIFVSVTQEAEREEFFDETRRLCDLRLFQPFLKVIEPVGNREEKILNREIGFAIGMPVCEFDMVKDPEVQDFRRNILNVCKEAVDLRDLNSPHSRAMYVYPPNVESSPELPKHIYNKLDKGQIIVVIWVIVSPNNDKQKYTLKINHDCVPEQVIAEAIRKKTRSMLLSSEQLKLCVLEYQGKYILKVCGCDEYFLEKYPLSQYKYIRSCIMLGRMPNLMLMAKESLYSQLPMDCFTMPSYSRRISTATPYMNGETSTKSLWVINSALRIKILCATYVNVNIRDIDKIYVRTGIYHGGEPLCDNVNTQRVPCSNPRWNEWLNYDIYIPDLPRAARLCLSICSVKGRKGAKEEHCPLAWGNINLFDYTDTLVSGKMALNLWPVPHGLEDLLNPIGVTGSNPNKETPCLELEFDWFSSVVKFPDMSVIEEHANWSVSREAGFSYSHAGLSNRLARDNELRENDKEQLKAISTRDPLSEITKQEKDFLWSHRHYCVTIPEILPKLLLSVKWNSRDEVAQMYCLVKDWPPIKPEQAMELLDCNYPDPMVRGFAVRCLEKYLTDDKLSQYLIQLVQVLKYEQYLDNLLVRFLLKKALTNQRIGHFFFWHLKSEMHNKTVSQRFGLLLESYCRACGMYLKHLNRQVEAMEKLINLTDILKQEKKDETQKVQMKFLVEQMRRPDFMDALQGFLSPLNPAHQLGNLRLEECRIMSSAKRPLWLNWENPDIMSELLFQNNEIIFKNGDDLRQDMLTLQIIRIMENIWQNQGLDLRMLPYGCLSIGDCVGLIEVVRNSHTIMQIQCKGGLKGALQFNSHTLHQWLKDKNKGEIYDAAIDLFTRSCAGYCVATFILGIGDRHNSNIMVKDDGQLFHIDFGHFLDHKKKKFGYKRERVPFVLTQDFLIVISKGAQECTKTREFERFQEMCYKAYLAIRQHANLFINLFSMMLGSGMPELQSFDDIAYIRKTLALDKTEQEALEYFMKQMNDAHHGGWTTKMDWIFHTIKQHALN

[7] = molecular target: D(1A) dopamine receptor (Homo sapiens) (UniProt P21728); conditions: Compound concentration 10.0 uM
[8] = molecular target: Cyclin-dependent kinase 18 (Homo sapiens) (UniProt Q07002); conditions: Compound concentration 1000.0 nM
[9] = molecular target: Histamine H1 receptor (Homo sapiens) (UniProt P35367); conditions: Compound concentration 10.0 uM
[10] = molecular target: Serine/threonine-protein kinase TAO1 (Homo sapiens) (UniProt Q7L7X3); conditions: Compound concentration 1000.0 nM
[11] = molecular target: Protein-tyrosine kinase 2-beta (Homo sapiens) (UniProt Q14289); conditions: Compound concentration 1000.0 nM
[12] = molecular target: Ephrin type-A receptor 5 (Homo sapiens) (UniProt P54756); conditions: Compound concentration 1000.0 nM
[13] = molecular target: Phosphatidylinositol 4,5-bisphosphate 3-kinase catalytic subunit gamma isoform (Homo sapiens) (UniProt P48736); conditions: Compound concentration 1000.0 nM
[14] = molecular target: Cyclin-dependent kinase 13 (Homo sapiens) (UniProt Q14004); conditions: Compound concentration 1000.0 nM
[15] = molecular target: Tyrosine-protein kinase Lck (Homo sapiens) (UniProt P06239); conditions: Compound concentration 1000.0 nM
[16] = molecular target: Cyclin-dependent kinase 2 (Homo sapiens) (UniProt P24941); conditions: Compound concentration 1000.0 nM
[17] = molecular target: Mitogen-activated protein kinase kinase kinase kinase 5 (Homo sapiens) (UniProt Q9Y4K4); conditions: Compound concentration 1000.0 nM
Mitogen-activated protein kinase kinase kinase kinase 5 (Homo sapiens), sequence (Q9Y4K4 whole entry, looked up): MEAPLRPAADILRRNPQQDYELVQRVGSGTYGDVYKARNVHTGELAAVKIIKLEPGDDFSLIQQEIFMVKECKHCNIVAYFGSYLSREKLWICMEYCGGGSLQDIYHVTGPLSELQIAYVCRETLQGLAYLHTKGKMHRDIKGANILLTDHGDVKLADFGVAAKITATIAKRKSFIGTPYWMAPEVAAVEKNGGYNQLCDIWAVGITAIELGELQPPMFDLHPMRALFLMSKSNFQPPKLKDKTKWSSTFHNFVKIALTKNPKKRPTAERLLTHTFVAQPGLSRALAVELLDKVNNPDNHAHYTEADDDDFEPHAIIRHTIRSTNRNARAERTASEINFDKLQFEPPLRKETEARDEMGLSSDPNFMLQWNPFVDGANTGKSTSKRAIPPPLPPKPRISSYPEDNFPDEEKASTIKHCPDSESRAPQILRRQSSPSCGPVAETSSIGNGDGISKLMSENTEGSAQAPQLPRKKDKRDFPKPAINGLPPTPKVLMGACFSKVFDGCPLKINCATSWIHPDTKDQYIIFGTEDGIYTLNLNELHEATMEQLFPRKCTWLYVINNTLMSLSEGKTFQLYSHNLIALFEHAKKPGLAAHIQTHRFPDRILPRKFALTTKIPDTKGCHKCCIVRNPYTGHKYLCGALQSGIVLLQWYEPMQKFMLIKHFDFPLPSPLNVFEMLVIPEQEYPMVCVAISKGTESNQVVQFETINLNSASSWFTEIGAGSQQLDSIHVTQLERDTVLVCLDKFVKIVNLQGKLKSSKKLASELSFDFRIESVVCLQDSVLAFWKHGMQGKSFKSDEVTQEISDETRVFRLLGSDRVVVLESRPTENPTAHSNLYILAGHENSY

[18] = molecular target: NUAK family SNF1-like kinase 2 (Homo sapiens) (UniProt Q9H093); conditions: Compound concentration 1000.0 nM
[19] = molecular target: Aurora kinase C (Homo sapiens) (UniProt Q9UQB9); conditions: Compound concentration 1000.0 nM
[20] = molecular target: Tyrosine-protein kinase Fes/Fps (Homo sapiens) (UniProt P07332); conditions: Compound concentration 1000.0 nM
[21] = molecular target: Serine/threonine-protein kinase Nek1 (Homo sapiens) (UniProt Q96PY6); conditions: Compound concentration 1000.0 nM
[22] = molecular target: Epithelial discoidin domain-containing receptor 1 (Homo sapiens) (UniProt Q08345); conditions: Compound concentration 1000.0 nM
[23] = molecular target: 5-hydroxytryptamine receptor 6 (Homo sapiens) (UniProt P50406); conditions: Compound concentration 10.0 uM
[24] = system: Receptor-type tyrosine-protein kinase FLT3 (Homo sapiens), P36888 [UNDEFINED MUTATION]; conditions: Compound concentration 1000.0 nM
[25] = molecular target: Phosphatidylinositol 4-phosphate 5-kinase type-1 alpha (Homo sapiens) (UniProt Q99755); conditions: Compound concentration 1000.0 nM
[26] = molecular target: Activin receptor type-1 (Homo sapiens) (UniProt Q04771); conditions: Compound concentration 1000.0 nM
[27] = molecular target: Serine/threonine-protein kinase RIO1 (Homo sapiens) (UniProt Q9BRS2); conditions: Compound concentration 1000.0 nM
[28] = molecular target: Mitogen-activated protein kinase 6 (Homo sapiens) (UniProt Q16659); conditions: Compound concentration 1000.0 nM
[29] = molecular target: Muscle, skeletal receptor tyrosine-protein kinase (Homo sapiens) (UniProt O15146); conditions: Compound concentration 1000.0 nM
[30] = molecular target: Calcium/calmodulin-dependent protein kinase type 1B (Homo sapiens) (UniProt Q6P2M8); conditions: Compound concentration 1000.0 nM
Calcium/calmodulin-dependent protein kinase type 1B (Homo sapiens), sequence (Q6P2M8 whole entry): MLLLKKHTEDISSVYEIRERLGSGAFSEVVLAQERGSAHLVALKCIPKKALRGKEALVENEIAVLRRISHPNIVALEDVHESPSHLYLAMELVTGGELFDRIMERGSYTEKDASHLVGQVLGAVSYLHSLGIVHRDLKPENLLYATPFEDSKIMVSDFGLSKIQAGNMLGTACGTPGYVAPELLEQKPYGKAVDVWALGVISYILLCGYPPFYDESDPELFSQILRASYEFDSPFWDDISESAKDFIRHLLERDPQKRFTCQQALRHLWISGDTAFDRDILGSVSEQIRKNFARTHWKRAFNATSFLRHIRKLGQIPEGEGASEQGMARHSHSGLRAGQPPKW

[31] = molecular target: Activated CDC42 kinase 1 (Homo sapiens) (UniProt Q07912); conditions: Compound concentration 1000.0 nM
Activated CDC42 kinase 1 (Homo sapiens), sequence (Q07912 whole entry, looked up): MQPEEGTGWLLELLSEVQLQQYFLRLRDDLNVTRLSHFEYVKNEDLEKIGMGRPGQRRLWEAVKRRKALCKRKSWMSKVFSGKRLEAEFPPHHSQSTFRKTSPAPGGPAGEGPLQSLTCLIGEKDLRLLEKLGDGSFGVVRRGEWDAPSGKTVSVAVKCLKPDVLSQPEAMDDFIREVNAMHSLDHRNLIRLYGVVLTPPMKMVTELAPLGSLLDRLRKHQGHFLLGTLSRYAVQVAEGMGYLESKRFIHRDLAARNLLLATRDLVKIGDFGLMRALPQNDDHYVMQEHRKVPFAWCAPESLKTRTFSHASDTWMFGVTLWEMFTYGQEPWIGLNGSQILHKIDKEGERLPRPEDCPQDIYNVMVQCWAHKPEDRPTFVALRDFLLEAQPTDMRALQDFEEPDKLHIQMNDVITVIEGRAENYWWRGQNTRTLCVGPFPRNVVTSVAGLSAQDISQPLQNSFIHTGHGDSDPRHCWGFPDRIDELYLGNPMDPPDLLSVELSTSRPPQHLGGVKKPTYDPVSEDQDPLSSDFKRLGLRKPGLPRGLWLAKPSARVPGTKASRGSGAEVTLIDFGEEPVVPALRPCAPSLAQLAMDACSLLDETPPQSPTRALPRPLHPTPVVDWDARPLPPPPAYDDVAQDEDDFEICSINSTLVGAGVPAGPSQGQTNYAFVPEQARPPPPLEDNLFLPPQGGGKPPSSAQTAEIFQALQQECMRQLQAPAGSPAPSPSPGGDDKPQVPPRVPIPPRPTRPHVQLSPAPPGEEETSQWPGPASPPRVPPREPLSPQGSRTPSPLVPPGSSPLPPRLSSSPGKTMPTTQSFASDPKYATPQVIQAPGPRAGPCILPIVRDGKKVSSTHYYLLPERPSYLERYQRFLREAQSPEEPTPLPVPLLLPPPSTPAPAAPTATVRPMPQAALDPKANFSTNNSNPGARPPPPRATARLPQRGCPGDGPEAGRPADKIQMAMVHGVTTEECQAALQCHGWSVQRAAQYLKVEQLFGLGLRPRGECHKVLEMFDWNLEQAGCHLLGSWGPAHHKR

[32] = molecular target: Platelet-derived growth factor receptor alpha (Homo sapiens) (UniProt P16234); conditions: Compound concentration 1000.0 nM
[33] = molecular target: MAP kinase-activated protein kinase 2 (Homo sapiens) (UniProt P49137); conditions: Compound concentration 1000.0 nM
[34] = molecular target: Phosphatidylinositol 4,5-bisphosphate 3-kinase catalytic subunit delta isoform (Homo sapiens) (UniProt O00329); conditions: Compound concentration 1000.0 nM
[35] = system: Epidermal growth factor receptor (Homo sapiens), P00533 [G719C]; conditions: Compound concentration 1000.0 nM
[36] = system: Epidermal growth factor receptor (Homo sapiens), P00533 [UNDEFINED MUTATION]; conditions: Compound concentration 1000.0 nM
[37] = molecular target: 1-phosphatidylinositol 3-phosphate 5-kinase (Homo sapiens) (UniProt Q9Y2I7); conditions: Compound concentration 1000.0 nM
[38] = molecular target: Serine/threonine-protein kinase 17A (Homo sapiens) (UniProt Q9UEE5); conditions: Compound concentration 1000.0 nM
[39] = molecular target: Receptor-interacting serine/threonine-protein kinase 1 (Homo sapiens) (UniProt Q13546); conditions: Compound concentration 1000.0 nM
Receptor-interacting serine/threonine-protein kinase 1 (Homo sapiens), sequence (Q13546 whole entry): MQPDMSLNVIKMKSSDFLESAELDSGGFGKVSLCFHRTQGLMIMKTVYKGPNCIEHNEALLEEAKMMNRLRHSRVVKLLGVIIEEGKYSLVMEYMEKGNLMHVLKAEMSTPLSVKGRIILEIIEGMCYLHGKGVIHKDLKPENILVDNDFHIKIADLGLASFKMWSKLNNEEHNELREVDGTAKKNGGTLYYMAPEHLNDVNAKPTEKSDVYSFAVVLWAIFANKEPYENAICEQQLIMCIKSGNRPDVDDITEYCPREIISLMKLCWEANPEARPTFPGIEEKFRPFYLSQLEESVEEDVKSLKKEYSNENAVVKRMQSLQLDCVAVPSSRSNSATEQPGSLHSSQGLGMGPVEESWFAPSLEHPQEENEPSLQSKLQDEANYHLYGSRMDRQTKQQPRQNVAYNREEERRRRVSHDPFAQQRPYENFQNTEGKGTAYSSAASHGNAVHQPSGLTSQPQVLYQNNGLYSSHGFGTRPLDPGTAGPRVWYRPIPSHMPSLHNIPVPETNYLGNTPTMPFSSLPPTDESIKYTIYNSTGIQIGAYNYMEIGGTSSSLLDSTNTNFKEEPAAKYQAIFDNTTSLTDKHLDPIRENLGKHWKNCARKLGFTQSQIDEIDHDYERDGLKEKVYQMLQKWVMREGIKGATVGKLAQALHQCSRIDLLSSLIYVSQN

[40] = system: Serine/threonine-protein kinase B-raf (Homo sapiens), P15056 [V600E]; conditions: Compound concentration 1000.0 nM
[41] = molecular target: 5-hydroxytryptamine receptor 1E (Homo sapiens) (UniProt P28566); conditions: Compound concentration 10.0 uM
[42] = molecular target: Sigma non-opioid intracellular receptor 1 (Homo sapiens, UniProt Q99720); conditions: Compound concentration 10.0 uM
Sigma non-opioid intracellular receptor 1, sequence (Q99720 whole entry): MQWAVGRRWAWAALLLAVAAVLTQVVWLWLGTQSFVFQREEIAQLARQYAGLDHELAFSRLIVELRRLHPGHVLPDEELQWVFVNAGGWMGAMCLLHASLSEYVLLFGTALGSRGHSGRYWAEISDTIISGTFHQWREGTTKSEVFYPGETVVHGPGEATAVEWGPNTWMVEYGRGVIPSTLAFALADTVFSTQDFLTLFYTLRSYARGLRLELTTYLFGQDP

[43] = molecular target: cGMP-dependent protein kinase 1 (Homo sapiens) (UniProt Q13976); conditions: Compound concentration 1000.0 nM
[44] = molecular target: Sigma intracellular receptor 2 (Homo sapiens, UniProt Q5BJF2); conditions: Compound concentration 10.0 uM
Sigma intracellular receptor 2, sequence (Q5BJF2 whole entry): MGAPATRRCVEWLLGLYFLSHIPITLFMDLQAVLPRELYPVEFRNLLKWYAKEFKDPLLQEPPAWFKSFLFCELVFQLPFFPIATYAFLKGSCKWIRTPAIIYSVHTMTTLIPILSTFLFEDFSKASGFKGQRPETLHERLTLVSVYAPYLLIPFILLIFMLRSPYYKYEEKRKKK

[45] = molecular target: Insulin receptor-related protein (Homo sapiens) (UniProt P14616); conditions: Compound concentration 1000.0 nM

Cyclin-dependent kinase-like 1 (Homo sapiens), sequence (Q00532 whole entry): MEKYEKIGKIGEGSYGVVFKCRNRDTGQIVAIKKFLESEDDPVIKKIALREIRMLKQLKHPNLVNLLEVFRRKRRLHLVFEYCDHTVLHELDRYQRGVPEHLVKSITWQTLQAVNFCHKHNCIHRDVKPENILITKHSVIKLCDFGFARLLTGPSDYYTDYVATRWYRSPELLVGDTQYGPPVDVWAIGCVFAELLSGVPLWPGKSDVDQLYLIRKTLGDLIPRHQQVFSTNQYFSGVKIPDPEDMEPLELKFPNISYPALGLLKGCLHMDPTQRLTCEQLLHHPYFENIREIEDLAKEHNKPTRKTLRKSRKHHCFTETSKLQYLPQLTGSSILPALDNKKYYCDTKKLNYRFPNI

## O=C(Nc1cnc(Oc2ccc(F)cc2)nc1)N1CCc2ncccc2[C@@H]1c1ccc(F)cc1 [BAY-899]
[1]
  residual activity: 99%
[2]
  residual activity: 93%
[3]
  residual activity: 100%
[4]
  residual activity: 93%
[5]
  residual activity: 89%
[6]
  residual activity: 63%
[7]
  inhibition: 23.7%
[8]
  residual activity: 96%
[9]
  inhibition: 5.89%
[10]
  residual activity: 100%
[11]
  residual activity: 100%
[12]
  residual activity: 100%
[13]
  residual activity: 85%
[14]
  residual activity: 100%
[15]
  residual activity: 83%
[16]
  residual activity: 100%
[17]
  residual activity: 77%
[18]
  residual activity: 100%
[19]
  residual activity: 81%
[20]
  residual activity: 100%
[21]
  residual activity: 84%
[22]
  residual activity: 95%
[23]
  inhibition: -3.59%
[24]
  residual activity: 100%
[25]
  residual activity: 100%
[26]
  residual activity: 97%
[27]
  residual activity: 89%
[28]
  residual activity: 100%
[29]
  residual activity: 86%
[30]
  residual activity: 100%
[31]
  residual activity: 93%
[32]
  residual activity: 93%
[33]
  residual activity: 80%
[34]
  residual activity: 100%
[35]
  residual activity: 76%
[36]
  residual activity: 100%
[37]
  residual activity: 63%
[38]
  residual activity: 85%
[39]
  residual activity: 99%
[40]
  residual activity: 83%
[41]
  inhibition: -8.08%
[42]
  inhibition: 64.4%
[43]
  residual activity: 89%
[44]
  inhibition: 53.2%
[45]
  residual activity: 84%

## O=C(Nc1ccc(Oc2ccc(F)cc2)cc1)N1CCc2ncccc2[C@H]1c1ccc(F)cc1 [BAY-897]
[1]
  residual activity: 100%
[2]
  residual activity: 100%
[3]
  residual activity: 97%
[4]
  residual activity: 95%
[5]
  residual activity: 100%
[6]
  residual activity: 73%
[7]
  inhibition: 39.1%
[8]
  residual activity: 98%
[9]
  inhibition: 15.9%
[10]
  residual activity: 100%
[11]
  residual activity: 89%
[12]
  residual activity: 100%
[13]
  residual activity: 87%
[14]
  residual activity: 100%
[15]
  residual activity: 94%
[16]
  residual activity: 90%
[17]
  residual activity: 91%
[18]
  residual activity: 82%
[19]
  residual activity: 87%
[20]
  residual activity: 100%
[21]
  residual activity: 100%
[22]
  residual activity: 100%
[23]
  inhibition: 16.9%
[24]
  residual activity: 93%
[25]
  residual activity: 95%
[26]
  residual activity: 96%
[27]
  residual activity: 100%
[28]
  residual activity: 98%
[29]
  residual activity: 92%
[30]
  residual activity: 96%
[31]
  residual activity: 99%
[32]
  residual activity: 95%
[33]
  residual activity: 98%
[34]
  residual activity: 93%
[35]
  residual activity: 73%
[36]
  residual activity: 100%
[37]
  residual activity: 95%
[38]
  residual activity: 86%
[39]
  residual activity: 100%
[40]
  residual activity: 93%
[41]
  inhibition: 1.61%
[42]
  inhibition: 73.4%
[43]
  residual activity: 91%
[44]
  inhibition: 80.8%
[45]
  residual activity: 94%
